Patent publication US10556860B2, “hTERT modulators and methods of use” (Arizona Board of Regents on Behalf of the University of …, priority 2015, dated 2020)

How the values were obtained:
[1] = tested on: hTERT mRNA in melanoma cell line (UACC-903); experiment: qPCR of hTERT expression in G124A mutant melanoma cell line; assay type: cell-based, human; conditions: 5 μM, 72 h
Procedure: (§1) FIGS. 13A-13C are a set of graphs showingselective reduction in viability (A) and hTERT expression (B) in melanoma cells carrying hTERT core promotor mutations. NHM-002 (normal human melanocytes) and a G124A mutant cell line were treated with vehicle, 1.25, 2.5, and 5 μM GTC365 for 72 h. Viability was reduced in hTERT mutant melanoma cells by 50% (left). […] (C) Differential response to GTC365 in WT and promoter mutant cell lines.
(§2) Next, to assess the selectivity of GTC365 for hTERT-dependent cancer cells relative to normal precursorcells, we compared the effects of a range of […] on viability at 72 h in normal humanmelanocytes (NHM-002) relative to those of UACC-903, aG124A mutant (FIG. 13A). […] To confirm that the reduction in cell viability was aresult of hTERT downregulation, we performed reverse transcription and qPCR to measure the mRNA level of hTERT expression in cells treated with DMSO or 5 μMGTC365. hTERT expression was reduced by 41% in themelanoma cell line after 72 h but was undetectable in normalmelanocytes, even in the absence of GTC365 (FIG. 13B). Finally, tobroadly assess the selectivity of GTC365 for hTERT promotermutant versus WT cells, we conducted a 6-point 72 h MTSproliferation assay to determine EC50s in 14 additional melanoma cell lines with characterized TERT promoter status([…]) (FIG. 13C). […]

[2] = tested on: hTERT under the control of the CMV promoter; experiment: hTERT transcription in MCF7 cells overexpressing hTERT under CMV promoter; assay type: cell-based, human; conditions: MCF7 cell line transfected with plasmid overexpressing hTERT (CMV promoter)
Procedure: (§3) qPCR. MCF7 and melanoma cells were treated with GTC365 and BRACO-19 for 72 h. Total RNA was extracted using an RNeasy mini-prep kit (Qiagen) and quantitated by measuring absorbance at 260 nm. cDNA was synthesized using a Takara PrimeScript™ RT Reagent Kit with gDNA eraser and then used as a template for qPCR. The qPCR was performed using Kapa Probe Fast qPCR Master Mix with ABI Taqman probes of hTERT (Hs00972656_m1), BCL2 (HS00608023_m1, FAM-labeled) or MYC (Hs00153408_m1), and GAPDH (Hs02758991_g1, VIC-labeled). The Ct values were measured by running Rotor-Gene Q, and the relative quantity of hTERT, BCL2, and MYC mRNA was obtained compared to GAPDH as an internal control.
Establishment of stable cell lines overexpressing hTERT. The pCDNA-3XHA-hTERT plasmid containing hTERT driven by theCMV promoter was obtained from Addgene (ID: 51637) deposited by Dr. Steven Artandi. MCF7 cells in a 24-well plate were transfected with this plasmid (250 ng) using FuGENE HD transfection reagent for24 h. Cells were treated with several concentrations of G418 (0.1-1 mg/mL) and an antibiotic for colony selection for 4 weeks, and thenone colony was selected for further culture. […]

[3] = tested on: melanoma cell lines with characterized TERT promoter status (19 cell lines); experiment: 6-point 72 h MTS proliferation assay, WT versus promoter mutant melanoma cell lines; assay type: cell-based, human
Procedure: as §1, §2

[4] = tested on: G146A mutant hTERT G-quadruplex; experiment: CD melting (Tm), G146A mutant; assay type: binding, human; conditions: 2 equiv
Procedure: Circular dichroism. Oligomers of WT, G124A, G124/125A, G138/139A and G146A were synthesized and HPSF-purified by MGW Operon, Inc. For CD analysis, oligomers (5 μM) in a buffer containing 10 mM Tris-HCl (pH 7.5) and 140 mM KCl were annealed. For the CD analysis of the complex of oligomers and compounds, oligomers (5 μM) in a buffer containing 10 mM Tris-HCl (pH 7.5) and 5 mM KCl for GTC365 or 1 mM KCl for BRACO-19 were annealed. Oligomers and GTC365 or BRACO-19 were incubated overnight at room temperature. For the full-length of C-rich strand, the oligomer in a buffer of 10 mM Na cacodylate (pH 6.6) was annealed and then incubated with GTC365 overnight. CD analysis was conducted on a Jasco 810 spectropolarimeter (Jasco, Easton, Md.) using a quartz cell with 1 mm of path length, 1 nm of band width, and 1 s of response time for spectra at 20° C. Melting curves for the determination of Tm were obtained by recording ellipticity at 262 nm with increasing temperatures from 25° C. to 95° C. at a rate of 1.6° C./min. Tm of the C-rich strand with GTC365 was obtained from the CD signal at 286 nm within 10-60° C.
CD and DMS footprinting analyses were conducted to characterize the binding of GTC365 and BRACO-19 to the 5-12 G-quadruplex. […] To verify the effects of compounds on the thermal stability of the WT and the mutant G-quadruplexes, Tms were determined by CD. […]

[5] = tested on: hTERT mRNA in melanoma cells carrying WT, G124A, G124/125A, G138/139A and G146A; experiment: qPCR of hTERT mRNA in melanoma cells (WT and mutants); assay type: cell-based, human; conditions: WT and all mutant melanoma cells, 72 h, 1 μM
Procedure: Cell cultures. MCF7 and melanoma (UACC 383) cells were cultured in media of RPMI-1640 with 10% FBS and 1% penicillin/streptomycin. For melanoma cells UACC 2512, UACC 3090, UACC 1729, and UACC 2528, 20% FBS was included in the RPMI media instead of 10% FBS. Cells were incubated at 37° C. with 5% CO2.
as §3
To determine the cellular effect of GTC365 on proliferation as well as suppression of the activation of hTERT by G124A, G124/125A, G138/139A, and G146A mutants, melanoma cell lines were used alongside a WT cell line. All mutants increased the mRNA level of hTERT, compared to WT melanoma cells, in the 6.6-34-fold range. […]

N=C(N)NCCCS(=O)(=O)Nc1ccc(Nc2c3ccccc3nc3cc([N+](=O)[O-])ccc23)cc1 [GTC365]
reduction of hTERT expression (mRNA) [1]: 41%
effect on hTERT transcription [2]: no effect
response (EC50) in WT versus mutant melanoma cell lines [3]: significant differential response
Tm more increased compared to the WT [4]: 6-7 °C
decrease in the mRNA level of hTERT [5]: 25%
